Source: US8420859B2, “Formulations” (Syngenta Limited, priority 2006, dated 2013)

Key:
daphnia = assay: Daphnia screening at 100 mg/l, immobility over 24 and 48 hours; assay type: in vivo; settings: single concentration 100 mg/l, 18-19° C., four replicates; for EC50: 48 h
Procedure: Daphnia screening is commonly carried out to assess the inherent toxicity of chemicals. In this test five daphnia were placed in a beaker full of water held between 18 and 19° C. A lactamide chemical of interest was introduced to a concentration of 100 mg/l and the daphnia were monitored over 24 and 48 hours. Any daphnia which became immobile were recorded and the number was used for the assessment. If less than half of the daphnia were immobile after 48 hours the EC50 (48 hours) figure was classified as being >100 mg/l [otherwise, it would be less than or equal to 100 mg/l]. The lactamides of Table 6 were tested and their EC50 figures are tabulated (each experiment was replicated four times and in fact in all these tests none of the daphnia died): […]

[1] = system: amaranthus retroflexus (AMARE), alopecurus myosuorides (ALOMY), chenopodium album (CHEAL) and digitaria sanguinalis (DIGSA); assay: Phytotoxic damage to young plants sprayed with solvent; assay type: in vivo; settings: for Observed damage with solvent and Tween 20: solvent 1% w/w plus 0.5% Tween 20, 2500 litres per hectare
Description: Formulations that are applied to crop plants can often lead to phytotoxic damage. This damage may take the form of the formation of necrotic spots where sprayed formulation has landed on leaf surfaces or it may take the form of chlorosis or larger scale damage to the plant such as dessication and death. In order to assess the safety of solvents to plant species they were sprayed at high usage rates and high water volumes onto very sensitive, young plants.
The plant species amaranthus retroflexus (AMARE), alopecurus myosuorides (ALOMY), chenopodium album (CHEAL) and digitaria sanguinalis (DIGSA) were grown from seed under glass house conditions until they reached the first leaf stage. A solvent was dissolved in distilled water at a rate of 1% w/w and sprayed onto the plants at a rate of 2500 litres per hectare using a laboratory track sprayer. The plants were maintained in the glasshouse for a period of 2 weeks in order to observe any effects on the plants. Untreated plants were grown and kept under the same conditions as a direct comparison to the treated samples. A second set of identical plants was also sprayed with the novel solvent however in this case 0.5% of the commercial surfactant Tween 20 (T) was also added to the spray solution. In this experiment control plants for comparison were also sprayed with 0.5% Tween 20 but not with the solvent. Plants were examined after 1, 2, 6, 7, 9 and 13 days to try to find evidence of damage to the treated plants. All experiments were carried out in duplicate.

[2] = Flash point, Seta flash 3 closed cup tester; assay type: physicochemical; settings: Seta flash 3 closed cup tester model 30000-0
Procedure: The flammability of solvents is of concern to minimise risk during storage, transport and use. Typically the risk is assessed by measuring the flash point of the solvent. […] The measured value was 108° C.

skin = assay: SIFT (Skin Integrity Function Test): electrical resistance of skin after exposure
Description: Skin irritation and damage can be measured most easily by a well-known SIFT (Skin Integrity Function Test) procedure measuring the electrical resistance of the skin after exposure to the material of interest and comparing this to the electrical resistance of untreated skin. […] SLS is used in shampoo and toothpaste formulations and is a suitable control because much is known about its irritating behaviour on human skin and eye tissue.

[3] = Solubility of cyproconazole in solvent (saturated solution, HPLC); assay type: physicochemical
Procedure: A sample of a solvent (200 microlitres) was added to a 4 ml volume glass vial. The pesticide cyproconazole was added to the vial and shaken to allow thorough mixing. The vial was left to equilibrate at 25° C. for 24 hours after which time it was examined visually. If the solid had dissolved a further quantity of cyproconazole was added, the vial shaken and then left for another 24 hours. This process was repeated until a saturated solution had formed after which time the vial was left to equilibrate for one week. The glass vial was thoroughly shaken using a laboratory Whirlimixer™ (T) (Fisons Scientific Instruments Limited), once per day, during this period. After this time the sample was centrifuged, the supernatant was sampled and analysed by HPLC with reference to a known weight of pure cyproconazole, in order to determine the concentration of cyproconazole in solution.

[4] = solvent 1% w/w in distilled water, 2500 litres per hectare, first leaf stage plants, examined 1-13 days, duplicate
[5] = first leaf stage plants, examined 1-13 days, duplicate

Row | Compound | Observed damage with solvent [1, 4] | Observed damage with solvent and Tween 20 [1, 5] | further results
1 | CCCCC(CC)CNC(=O)C(C)O (stereo not drawn) [N-(2-ethylhexyl) lactamide] |  |  | EC50 (daphnia): > 100 µg/mL
2 | CC(C)CNC(=O)C(C)O (stereo not drawn) [N-isobutyl lactamide] | None | None | 
3 | N-1-hyroxyethylbutyl lactamide | None | None | 
4 | CC(O)C(=O)NN1CCOCC1 (stereo not drawn) [N-morpholinyl lactamide] | None | None | EC50 (daphnia): > 100 µg/mL
5 | CCC(CO)NC(=O)C(C)O (stereo not drawn) [N-1-ethyl-2-hydroxyethyl lactamide] |  | None | 
6 | CC(O)C(=O)NN1CCCC1 (stereo not drawn) [N-pyrrolidinyl lactamide] | None | None | 
7 | CC(C)CC(C)NC(=O)C(C)O (stereo not drawn) [N-1,3-dimethyl butyl lactamide] | None | None | 
8 | CC(O)C(=O)N(C)C (stereo not drawn) [dimethyl lactamide, N,N-dimethyl lactamide] |  |  | flash point [2]: 108 °C; Electrical resistivity (skin; 1 % w/w): 8.04 kilo ohms; Electrical resistivity (skin; 10 % w/w): 7.72 kilo ohms
9 | CCCCN(C)C(=O)C(C)O (stereo not drawn) [N-methyl-N-butyl lactamide] | None | None | EC50 (48 hours) (daphnia): >100 µg/mL; % cyproconazole in solution [3]: 33.0% w/w
10 | CC(O)C(=O)NCCO (stereo not drawn) [N-2-hydroxyethyl lactamide] |  |  | Observed damage with solvent ([1]; in vivo): None
11 | CC(O)C(=O)NCCCN1CCOCC1 (stereo not drawn) [N-propyl morpholynyl lactamide] | None | None | 
12 | CCNC(=O)C(C)O (stereo not drawn) [N-ethyl lactamide] | None | None | 
13 | CCC(CC)NC(=O)C(C)O (stereo not drawn) [N-(1-ethylpropyl) lactamide] |  |  | EC50 (daphnia): > 100 µg/mL
14 | CCCCCCCCCCCCOS(=O)(=O)[O-].[Na+] [SLS, sodium lauryl sulphate] |  |  | Electrical resistivity (skin; 0.5% w/w aqueous solution, Table 2, untreated control 8.00): 2.03 kilo ohms; Electrical resistivity (skin; 1.0% solution, Table 2, untreated control 8.00): 1.84 kilo ohms; Electrical resistivity (skin; 10.0% solution, Table 2, untreated control 8.00): 0.91 kilo ohms; Electrical resistivity (skin; 10% w/w solution, skin post-treatment, mean of five measurements, untreated control 8.00): 0.91 kilo ohms
15 | CCC(C)NC(=O)C(C)O (stereo not drawn) [N-sec-butyl lactamide] | None | None | 
16 | CC(O)C(=O)N(CCO)Cc1ccccc1 (stereo not drawn) [N-hydroxyethyl-N-benzyl lactamide] | None | None | EC50 (48 hours) (daphnia): >100 µg/mL; % cyproconazole in solution [3]: 25.0% w/w
17 | N-2-hydroxyethyl piperidinyl lactamide | None | None | EC50 (48 hours) (daphnia): >100 µg/mL; % cyproconazole in solution [3]: 19.3% w/w
18 | C=CCNC(=O)C(C)O (stereo not drawn) [N-allyl lactamide] | None | None | EC50 (daphnia): > 100 µg/mL
19 | CCCN(C)C(=O)C(C)O (stereo not drawn) [N-methyl-N-propyl lactamide] | None | None | EC50 (48 hours) (daphnia): >100 µg/mL; % cyproconazole in solution [3]: 27.3% w/w
20 | CC(O)C(=O)NCc1ccccc1 (stereo not drawn) [N-benzyl Lactamide] | None | None | 
21 | CC(C)CCC(C)NC(=O)C(C)O (stereo not drawn) [N-1,4-dimethylpentyl lactamide] |  |  | % cyproconazole in solution [3]: 10.5% w/w
22 | CC(C)NC(=O)C(C)O (stereo not drawn) [N-isopropyl Lactamide] | None | None | 
23 | CCN(CCO)C(=O)C(C)O (stereo not drawn) [N-ethyl-N-2-hydroxyethyl lactamide] | None | None | EC50 (48 hours) (daphnia): >100 µg/mL; % cyproconazole in solution [3]: 18.2% w/w
24 | CCN(CC)CCCNC(=O)C(C)O (stereo not drawn) [3-diethylamino propyl lactamide] | None |  | 
